Values of other authors in article PMC10537421, “Co-Dispersion Delivery Systems with Solubilizing Carriers Improving the Solubility and Permeability of Cannabinoids (Cannabidiol, Cannabidiolic Acid, and Cannabichromene) from Cannabis sativa (Henola Variety) Inflorescences” (Pharmaceutics, 2023).
Where two headings read alike, the source gives them in different places.

Experiments:
[1] = for CBD released: SIF and SGF
[2] = for bioavailability: oral administration; for bioavailability after inhalation: smoking or vaporizing

SMILES | pKa (approximate) | CBD released ([1]; 1 h) | CBD released ([1]; 48 h) | CBD detected after SIF digestion (bioaccessibility) ([1]; simulated intestinal fluid) [%] | bioavailability after sublingual administration [2] | bioavailability [2] | bioavailability after inhalation [2] | pKa
CCCCCc1cc(O)c2c(c1)OC(C)(CCC=C(C)C)C=C2 (stereo not drawn) [CBC, cannabichromene] | 9.5–10.3 | – | – | – | – | – | – | –
C=C(C)[C@@H]1CCC(C)=C[C@H]1c1c(O)cc(CCCCC)cc1O [CBD, cannabidiol] | – | less than 3% | less than 10% | 29 | 13–19% | ≈ 6% | 11–45% | 9.3–10.3
C=C(C)[C@@H]1CCC(C)=C[C@H]1c1c(O)cc(CCCCC)c(C(=O)O)c1O [CBDA, cannabidiolic acid] | ~2.9 | – | – | – | – | – | – | –
CCCCCc1cc(O)c2c(c1)OC(C)(C)[C@@H]1CCC(C)=C[C@@H]21 [THC, tetrahydrocannabinol] | – | – | – | – | 13–14% | 4–12% | 10% to 35% | –
